Experimental data taken from US10100083B2, “Leukemia stem cell targeting ligands and methods of use” (The Regents of the University of California, priority 2011, dated 2018).
Positions of bridges follow the written chain, without caps; N, C: chain ends. No end group written: not given here.

Key:
CLL1 [1] = test: Binding of phage displaying the peptide to A549 cells expressing CLL1-RFP (anti-M13 antibody-FITC); settings: anti-M13 monoclonal antibody-FITC
Protocol: (§1) FIGS. 1A-D illustrate identification of peptides that target CLL1. A. Panning strategy to identify CLL1-targeting peptides. Before each round of panning, the C7C phage peptide display library was subtracted with various cells to remove phage that could bind to those confounding cell types. B. Binding of phage to cells expressing CLL1. A549 cells were transfected with CLL1-RFP (a) or RFP (b, control), incubated with phage expressing the […] (SEQ ID NO: 17)peptide, and probed with anti-M13 phage antibody conjugated with FITC. Binding of phage to A549 cells expressing CLL1-RFP (c), but not to A549 cells expressing RFP (d) was observed. C. Binding of the […] (SEQ ID NO: 17)peptide to CLL1. Biotinylated […] (SEQ ID NO: 17) peptide was synthesized and used to probe PBMC, A549 transfected with vector alone, and A549 cells expressing CLL1. […] Upper panel: cells were probed with streptavidin (SA)-FITC. Lower panels: cells were probed with CLL1-targeting peptide and SA-FITC. D. Binding specificity of the […] (SEQ ID NO: 17)peptide. Cells of various origins were incubated with the biotinylated CLL1-targeting peptide or a bladder cancer-specific peptide, named PLZ4 as a negative control, and probed with SA-PE.
(§2) After panning, a total of 36 phage clones were sequenced. […] Expression of CLL1-RFP or RFP could be visualized by the appearance of red fluorescence. […]
Target sequence in this assay (Q5QGZ9 65-265 limits assumed): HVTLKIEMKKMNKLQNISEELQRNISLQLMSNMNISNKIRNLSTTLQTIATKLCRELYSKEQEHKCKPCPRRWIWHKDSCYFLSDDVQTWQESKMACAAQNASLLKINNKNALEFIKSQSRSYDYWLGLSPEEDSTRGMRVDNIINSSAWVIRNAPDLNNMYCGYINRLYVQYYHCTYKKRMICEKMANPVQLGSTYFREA

[2] = test system: A549 cells expressing RFP; test: Binding of phage displaying the peptide to control A549 cells expressing RFP
Protocol: as §1, §2

CLL1 [3] = test: Flow cytometry binding of biotinylated peptide to cells expressing CLL1
Protocol: (§3) One peptide, CLL1-L1, with the sequence of […] (SEQ ID NO: 17) was synthesized for further analysis. To determine the binding specificity, cell lines purchased from the American Type Culture Collection (ATCC), such as PC3N (Prostate), HepG2 (Liver), Skov-3 (Ovarian), 5637 (Bladder), HCT-116 (Colon), RPMI8226 (Myeloma), A549 (Lung), K562 (Leukemia), A549 and K562 cells, both expressing CLL1, were incubated with CLL1-L1 conjugated to biotin and probed with streptavidin-phycoerythrin (PE) (excitation 480 nm, emission 578 nm) (FIG. 1D). A bladder cancer-specific ligand, PLZ4, conjugated to biotin was used as the negative control.
After panning, a total of 36 phage clones were sequenced. After alignment, two consensus sequences were identified: CXLR(S/T)AAVC (SEQ ID NO: 34) and CXLRSSGPC (SEQ ID NO: 24) (Table 1), in which “X” represents several amino acids that can be replaceable. Serine (S) and threonine (T) belong to the same hydrophilic class of amino acids with only one methyl group difference. Of these two major sequences, one common motif exists: “LR(S/T)”. To confirm that these ligands indeed bind to CLL1, A549 cells were transfected with a CCL1-RFP expression vector (FIG. 1B panel a) or RFP (FIG. 1B panel b, the control). Expression of CLL1-RFP or RFP could be visualized by the appearance of red fluorescence. For subsequent in depth characterization, we selected the peptide […] […]
Target sequence in this assay (Q5QGZ9 44-265 limits assumed): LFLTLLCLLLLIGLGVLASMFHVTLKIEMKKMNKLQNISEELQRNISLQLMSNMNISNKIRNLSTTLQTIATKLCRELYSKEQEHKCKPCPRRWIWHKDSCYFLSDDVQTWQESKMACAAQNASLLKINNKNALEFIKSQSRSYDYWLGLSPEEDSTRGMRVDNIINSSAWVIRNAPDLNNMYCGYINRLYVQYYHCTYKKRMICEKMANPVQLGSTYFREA

[4] = test system: PBMC, parental A549, K562 or other cell lines; test: Flow cytometry binding of biotinylated peptide to PBMC, parental and other cell lines (binding specificity)
Protocol: as §3
After panning, a total of 36 phage clones were sequenced. After alignment, two consensus sequences were identified: CXLR(S/T)AAVC (SEQ ID NO: 34) and CXLRSSGPC (SEQ ID NO: 24) (Table 1), in which “X” represents several amino acids that can be replaceable. Serine (S) and threonine (T) belong to the same hydrophilic class of amino acids with only one methyl group difference. Of these two major sequences, one common motif exists: “LR(S/T)”. To confirm that these ligands indeed bind to CLL1, A549 cells were transfected with a CCL1-RFP expression vector (FIG. 1B panel a) or RFP (FIG. 1B panel b, the control). Expression of CLL1-RFP or RFP could be visualized by the appearance of red fluorescence. For subsequent in depth characterization, we selected the peptide […] (SEQ ID NO: 17) instead of […] (SEQ ID NO: 23) because aspartic acid (D) is more hydrophilic than proline (P), which makes the peptide more water soluble and easier to synthesize and manipulate. A549 cells expressing CCL1-RFP or RFP alone were incubated with phage displaying the […] (SEQ ID NO: 17) peptide, and probed with anti-M13 monoclonal antibody-FITC conjugate. […] This peptide is named CLL1-L1 and was used for all subsequent experiments. Flow cytometry studies were also performed to determine cell binding. CLL1-L1 was conjugated to biotin through the polyethylene glycol (PEG) linker. Cells were incubated with biotinylated CLL1-L1 and probed with streptavidin-PE. […]

[5] = Balb/c mice, follow-up for up to 10 days
in vivo = settings: Balb/c, mouse
[6] = streptavidin-PE, flow cytometry (FIG. 1C)

| Compound | Phage detected on cell surface (CLL1 [1]) | Phage detected on cell surface [2] | Binding to A549 and K562 cells that expressed recombinant CLL1 (CLL1 [3]; SA-PE (FIG. 1D)) | Binding to A549 cells expressing CLL1 (CLL1 [3]; streptavidin probe, flow cytometry (FIG. 1C)) | Binding to parental A549, K562 or other cell lines ([4]; SA-PE (FIG. 1D)) | Binding to A549 control cells [4, 6] | Binding to PBMC [4, 6] | Weight changes [5] | MTD (in vivo) |
| --- | --- | --- | --- | --- | --- | --- | --- | --- | --- |
| CDLRSAAVC (disulfide 1-9 (inferred)) [CLL1-L1, CLL1-targeting peptide from C7C phage display library, cyclized via the two cysteines] | detected on the surface | not on cells expressing RFP | bound | significant binding | not | No significant binding | No significant binding | – | – |
| COc1cccc2c1C(=O)c1c(O)c3c(c(O)c1C2=O)C[C@@](O)(C(C)=O)C[C@@H]3O[C@H]1C[C@H](N)[C@H](O)[C@H](C)O1 [free DNR, daunorubicin] | – | – | – | – | – | – | – | no significant weight changes | 10 mg/kg |
